# Data taken from article PMC5433425 (PeerJ, 2017).
# Several values for one entry are separate records, joined by “and”; a condition that tells them apart may be missing. Identical values can stand only once. Like-named read-outs stand apart in the source and are kept apart here.
# What was measured:
# [1] = system: E. coli AG100; assay: EtBr efflux by real-time fluorometry; conditions: AG100, AG100A and AG100tet (Fig. 2); 80 μM (20 μM for AG100A); glucose, 37 °C
# [2] = system: E. coli AG100A; conditions: EtBr […] + inhibitor 20 µM
# [3] = system: E. coli AG100; assay: Membrane permeability assay (Live/Dead BacLight)
# [4] = system: E. coli AG100tet; assay: microbe, parasite or virus in culture; type: cell-based, Escherichia coli; conditions: Escherichia coli, AG100TET
# Description: The assays were performed in triplicate and the MIC value was given as result of at least two concordant values.
# [5] = system: E. coli AG100tet (AcrAB overexpressing); assay: MIC, broth microdilution; type: cell-based, Escherichia coli; conditions: Escherichia coli
# [6] = system: E. coli AG100A (AcrAB pump-deficient); assay: MIC, broth microdilution; type: cell-based, Escherichia coli; conditions: Escherichia coli
smiles,measurement,setting,value
"CN(C)CCCN1c2ccccc2Sc2ccc(Cl)cc21 [CPZ, chlorpromazine]",inhibition of EtBr efflux,[1],inhibited
same,EtBr fluorescence,[2]; cycle 1,2.607
same,EtBr fluorescence,[2]; cycle 2,3.106
same,EtBr fluorescence,[2]; cycle 3,3.464
same,EtBr fluorescence,[2]; cycle 4,4.013
same,EtBr fluorescence,[2]; cycle 5,4.508
same,EtBr fluorescence,[2]; cycle 6,5.005
same,EtBr fluorescence,[2]; cycle 7,5.439
same,EtBr fluorescence,[2]; cycle 8,6.027
same,EtBr fluorescence,[2]; cycle 9,6.585
same,EtBr fluorescence,[2]; cycle 10,7.2591
same,EtBr fluorescence,[2]; cycle 11,7.711
same,EtBr fluorescence,[2]; cycle 12,8.1901
same,EtBr fluorescence,[2]; cycle 13,9.033
same,EtBr fluorescence,[2]; cycle 14,9.4255
same,EtBr fluorescence,[2]; cycle 15,10.1045
same,EtBr fluorescence,[2]; cycle 16,10.9436
same,EtBr fluorescence,[2]; cycle 17,11.4479
same,EtBr fluorescence,[2]; cycle 18,12.2134
same,EtBr fluorescence,[2]; cycle 19,12.6889
same,EtBr fluorescence,[2]; cycle 20,13.2115
same,EtBr fluorescence,[2]; cycle 21,13.9156
same,EtBr fluorescence,[2]; cycle 22,14.6607
same,EtBr fluorescence,[2]; cycle 23,15.4189
same,EtBr fluorescence,[2]; cycle 24,16.1017
same,EtBr fluorescence,[2]; cycle 25,16.6199
same,EtBr fluorescence,[2]; cycle 26,17.3366
same,EtBr fluorescence,[2]; cycle 27,18.2879
same,EtBr fluorescence,[2]; cycle 28,18.7671
same,EtBr fluorescence,[2]; cycle 29,19.416
same,EtBr fluorescence,[2]; cycle 30,19.8456
same,"BacLight Live/Dead fluorescence 485/20,528/20","[3]; 80 uM, raw well reading",104 and 88
same,"BacLight Live/Dead fluorescence 485/20,590/35","[3]; 80 uM, raw well reading",30 and 24
same,membrane permeability increase / membrane permeation,"[3]; AG100, 80 µM",18%
same,MIC,"[4]; read-out: MIC of EtBr in presence of the efflux inhibitor, AG100tet, inhibitor 40 μM",256 µg/mL
same,MIC,"[4]; read-out: MIC of EtBr in presence of the efflux inhibitor, AG100tet, inhibitor 80 μM",128 µg/mL
same,MIC,"[4]; read-out: MIC of EtBr in presence of the efflux inhibitor, AG100tet, inhibitor 160 μM",128 µg/mL
same,MIC,"[4]; read-out: MIC of OFX in presence of the efflux inhibitor, AG100tet, inhibitor 40 μM",0.5 µg/mL
same,MIC,"[4]; read-out: MIC of OFX in presence of the efflux inhibitor, AG100tet, inhibitor 80 μM",0.5 µg/mL
same,MIC,"[4]; read-out: MIC of OFX in presence of the efflux inhibitor, AG100tet, inhibitor 160 μM",0.25 µg/mL
same,MIC,"[4]; read-out: MIC of OXA in presence of the efflux inhibitor, AG100tet, inhibitor 40 μM",> 2050 µg/mL
same,MIC,"[4]; read-out: MIC of OXA in presence of the efflux inhibitor, AG100tet, inhibitor 80 μM",2050 µg/mL
same,MIC,"[4]; read-out: MIC of OXA in presence of the efflux inhibitor, AG100tet, inhibitor 160 μM",1020 µg/mL
same,MIC,"[4]; read-out: MIC of TET in presence of the efflux inhibitor, AG100tet, inhibitor 40 μM",32 µg/mL
same,MIC,"[4]; read-out: MIC of TET in presence of the efflux inhibitor, AG100tet, inhibitor 80 μM",32 µg/mL
same,MIC,"[4]; read-out: MIC of TET in presence of the efflux inhibitor, AG100tet, inhibitor 160 μM",16 µg/mL
same,MIC,[5],280 µg/mL and 788 µM
same,MIC,[6],60 µg/mL and 169 µM
